According to patent publication US20250163057A1, “DCN-1 MODULATING COMPOUNDS AND METHODS OF USE THEREOF” (Cellarity, Inc., priority 2023, published 2025):
pIC50: −log10 of the molar value. Where two headings read alike, the source gives them in different places.

Target: DCN1 (DCUND1) protein PONY domain (Homo sapiens (Human), UniProt Q96GG9)
Test: TR-FRET assay, DCN1 binding with FAM-labeled probe
Details: for IC50: TR FRET IC50 1 hr (nM)
Method: A TR-FRET assay was performed to evaluate the ability of the compounds to bind the DCN-1 protein.
The TR-FRET assay was designed following the Scott et al. protocol (Scott et al., Nat Chem Biol. 2017 August; 13(8): 850-857. Doi:10.1038/nchembio.2386). The recombinant form of the DCN1 (DCUND1) protein PONY domain was produced using an E. coli expression system at Viva Biotech (China). The DCN1 protein was biotinylated (EZ sulfo-NHS-LC-biotin; Thermofisher) for labeling with streptavidin terbium (Tb) cryptate in the reaction. The probe was changed to a non-covalent DCN1 inhibitor labeled with carboxyfluorescein (FAM; Zhou et al., Nat Commun. 2017; 8: 1150. Doi: 10.1038/s41467-017-01243-7). Buffer conditions were modified to enhance protein stability by exchanging Tween20 for TritonX and increasing NaCl to 200 mM. The compounds were screened against 5 nM DCN1 and 20 nM FAM-probe or 0.31 nM DCN1 and 900 nM total probe (100 nM FAM-labeled plus 800 nM unlabeled). The TR-FRET ratio between Tb-DCN1 and the FAM-labeled probe was measured in a 384-well opti-plate (Perkin Elmer) using a plate reader (BMG) at 1, 5, and 24 hrs after treatment with compound (final DMSO concentration of 0.1%).

[1] = 24 hr after treatment with compound, read-out: TR FRET IC50 24 hr
[2] = 1 hr after treatment with compound

Chain of DCN1 (DCUND1) protein PONY domain (Q96GG9 60-248): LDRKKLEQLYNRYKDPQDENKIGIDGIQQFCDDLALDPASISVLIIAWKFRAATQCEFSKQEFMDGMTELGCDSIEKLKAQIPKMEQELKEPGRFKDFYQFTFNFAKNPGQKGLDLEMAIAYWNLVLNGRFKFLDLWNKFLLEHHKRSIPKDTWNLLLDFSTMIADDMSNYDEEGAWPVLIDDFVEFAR

For `CCN1C(=O)[C@@H](NC(=O)c2cccc(C(F)(F)F)c2)[C@@H](c2ccc(F)cc2)c2c(C(C)(C)N(C)C#N)nn(-c3ccccc3)c21` (racemic) [Compound I-42, rac-N-((4R,5R)-7-ethyl-4-(4-fluorophenyl)-3-(2-(N-methylcyanamido)propan-2-yl)-6-oxo-1-phenyl-4,5,6,7-tetrahydro-1H-pyrazolo[3,4-b]pyridin-5-yl)-3-(trifluoromethyl)benzamide], the pIC50 [1] was 5.52 to 6.00 and the IC50 [2] was 1000 to 3000 nM.

With `CCN1C(=O)[C@@H](NC(=O)c2ccc(C3CCN(C)CC3)cc2)[C@@H](C2CC2)c2c(C(=O)N3[C@H](C#N)C[C@H]4C[C@H]43)nn(C3CCOCC3)c21` [Compound I-653] the pIC50 [1] was 5.52 to 6.00 and the IC50 [2] was 1000 to 3000 nM.

`CCN1C(=O)[C@@H](NC(=O)c2cccc(C(F)(F)F)c2)[C@@H](c2ccc(F)cc2)c2c(CNC(=O)/C=C/C(N)=O)nn(-c3ccccc3)c21` (racemic) [Compound I-64, rac-N1-(((4R,5R)-7-ethyl-4-(4-fluorophenyl)-6-oxo-1-phenyl-5-(3-(trifluoromethyl)benzamido)-4,5,6,7-tetrahydro-1H-pyrazolo[3,4-b]pyridine-3-yl)methyl)fumaramide] was tested, and the pIC50 [1] was 6.00 to 6.70 and the IC50 [2] was 1000 to 3000 nM.

`CCN1C(=O)[C@@H](NC(=O)c2cccc(C(F)(F)F)c2)[C@@H](c2ccc(F)cc2)c2c(CNC(=O)/C(C)=C/C(=O)OC)nn(-c3ccccc3)c21` (racemic) [Compound I-155] showed a pIC50 [1] of 6.00 to 6.70 and an IC50 [2] of 1000 to 3000 nM.

With `CCN1C(=O)[C@@H](NC(=O)c2cccc(C(F)(F)F)c2)[C@@H](c2ccc(F)cc2)c2c(CNC(=O)/C=C/C(=O)OC(C)(C)C)nn(-c3ccccc3)c21` (racemic) [Compound I-45, tert-butyl I-4-((((4S,5S)-7-ethyl-4-(4-fluorophenyl)-6-oxo-1-phenyl-5-(3-(trifluoromethyl)benzamido)-4,5,6,7-tetrahydro-1H-pyrazolo[3,4-b]pyridine-3-yl)methyl)amino)-4-oxobut-2-enoate] the pIC50 [1] was ≥ 6.70 and the IC50 [2] was 1000 to 3000 nM.

With `CCN1C(=O)[C@@H](NC(=O)c2cccc(C(F)(F)F)c2)[C@@H](C2CC2)c2c(CNC#N)nn(-c3ccccc3)c21` (racemic) [Compound I-98] the pIC50 [1] was ≥ 6.70 and the IC50 [2] was 200 to 1000 nM.

In the case of `CCN1C(=O)[C@@H](NC(=O)c2nc3c(s2)CN(C)CC3)[C@@H](C2CC2)c2c(C(=O)N3[C@H](C#N)C[C@H]4C[C@H]43)nn(C3CCOCC3)c21` [Compound I-512], the pIC50 [1] was 5.52 to 6.00 and the IC50 [2] was 1000 to 3000 nM.

In the case of `CCN1C(=O)[C@@H](NC(=O)c2cccc(C(F)(F)F)c2)[C@@H](c2ccc(F)cc2)c2c(CC/C=C/C(=O)NC)nn(-c3ccccc3)c21` (racemic) [Compound I-91], the pIC50 [1] was 6.00 to 6.70 and the IC50 [2] was 200 to 1000 nM.

For `C/C=C/S(=O)(=O)NCc1nn(-c2ccccc2)c2c1[C@H](c1ccc(F)cc1)[C@H](NC(=O)c1cccc(C(F)(F)F)c1)C(=O)N2CC` (racemic) [Compound I-6], the pIC50 [1] was ≥ 6.70 and the IC50 [2] was 200 to 1000 nM.

`CCN1C(=O)[C@@H](NC(=O)c2cccc(C(F)(F)F)c2)[C@@H](c2ccc(F)cc2)c2c(/C=C3\CCC(=O)N3)nn(-c3ccccc3)c21` (racemic) [Compound I-39, rac-N-((4R,5R)-7-ethyl-4-(4-fluorophenyl)-6-oxo-3-((E)-(5-oxopyrrolidin-2-ylidene)methyl)-1-phenyl-4,5,6,7-tetrahydro-1H-pyrazolo[3,4-b]pyridin-5-yl)-3-(trifluoromethyl)benzamide] showed a pIC50 [1] of 5.52 to 6.00 and an IC50 [2] of 1000 to 3000 nM.

With `CCN1C(=O)[C@@H](NC(=O)c2cccc(C(F)(F)F)c2)[C@@H](c2ccc(F)cc2)c2c(CNC(=O)[C@H](C)C#N)nn(-c3ccccc3)c21` (relative stereo) [Compound I-85, N-((4RS,5RS)-3-(((S*)-2-cyanopropanamido)methyl)-7-ethyl-4-(4-fluorophenyl)-6-oxo-1-phenyl-4,5,6,7-tetrahydro-1H-pyrazolo[3,4-b]pyridin-5-yl)-3-(trifluoromethyl)benzamide] the pIC50 [1] was 5.52 to 6.00 and the IC50 [2] was 1000 to 3000 nM.

`CCN1C(=O)[C@@H](NC(=O)c2cccc(C(F)(F)F)c2C)[C@@H](C2CC2)c2c(C(=O)N3[C@H](C#N)C[C@H]4C[C@H]43)nn(C3CCOCC3)c21` [Compound I-468] was tested, and the pIC50 [1] was ≥ 6.70 and the pIC50 (read-out: TR FRET IC50 1 hr, 1 hr after treatment with compound) was ≥ 6.70.

`CCN1C(=O)[C@@H](NC(=O)c2cccc(C(F)(F)F)c2)[C@H](c2ccc(F)cc2)c2c(CNC(=O)C3=C(C(=O)OC)CCC3)nn(-c3ccccc3)c21` (racemic) [Compound I-71] was tested, and the pIC50 [1] was 6.00 to 6.70 and the IC50 [2] was 200 to 1000 nM.

For `CCN1C(=O)[C@@H](NC(=O)c2cccc(C(F)(F)F)c2)[C@@H](c2ccc(F)cc2)c2c(C3(N(C)C#N)CC3)nn(-c3ccccc3)c21` (racemic) [Compound I-52], the pIC50 [1] was 5.52 to 6.00 and the IC50 [2] was 1000 to 3000 nM.

`CCN1C(=O)[C@@H](NC(=O)c2cccc(C(F)(F)F)c2)[C@@H](C2CC2)c2c(CN(C)C#N)nn(-c3ccccc3)c21` [Compound I-111] showed a pIC50 [1] of 6.00 to 6.70 and an IC50 [2] of 1000 to 3000 nM.

`CCN1C(=O)[C@@H](NC(=O)C2(c3ccccc3)CC2)[C@@H](C2CC2)c2c(C(=O)N3[C@H](C#N)C[C@H]4C[C@H]43)nn(C3CCOCC3)c21` [Compound I-419] gave a pIC50 [1] of 5.52 to 6.00 and an IC50 [2] of 1000 to 3000 nM.

`CCN1C(=O)[C@@H](NC(=O)c2cccc(N3CCCC3=O)c2)[C@@H](C2CC2)c2c(C(=O)N3[C@H](C#N)C[C@H]4C[C@H]43)nn(C3CCOCC3)c21` [Compound I-505] showed a pIC50 [1] of 5.52 to 6.00 and an IC50 [2] of 1000 to 3000 nM.

Work on `CCN1C(=O)[C@@H](NC(=O)c2cccc(C(F)(F)F)c2)[C@@H](c2ccc(F)cc2)c2c(C(=O)N3CC[C@H](C#N)C3)nn(-c3ccccc3)c21` (mixture of isomers) [Compound I-137] yielded a pIC50 [1] of 6.00 to 6.70 and an IC50 [2] of 200 to 1000 nM.

For `CCN1C(=O)[C@@H](NC(=O)c2cccc(C(F)(F)F)c2)[C@@H](c2ccc(F)cc2)c2c(CNC(=O)C#CCN3CCOCC3)nn(-c3ccccc3)c21` (racemic) [Compound I-68, ˜{N}—[˜{rac}-(4˜{S},5˜{S})-7-ethyl-4-(4-fluorophenyl)-3-[(4-morpholinobut-2-ynoylamino)methyl]-6-oxo-1-phenyl-4,5-dihydropyrazolo[3,4-b]pyridine-5-yl]-3-(trifluoromethyl)benzamide], the pIC50 [1] was 6.00 to 6.70 and the IC50 [2] was 200 to 1000 nM.

`CCN1C(=O)[C@@H](NC(=O)c2cccc(C(F)(F)F)c2)[C@@H](c2ccc(F)cc2)c2c(CC/C=C\C(=O)O)nn(-c3ccccc3)c21` (racemic) [Compound I-126, rac-(Z)-5-((4R,5R)-7-ethyl-4-(4-fluorophenyl)-6-oxo-1-phenyl-5-(3-(trifluoromethyl)benzamido)-4,5,6,7-tetrahydro-1H-pyrazolo[3,4-b]pyridin-3-yl)pent-2-enoic acid] was tested, and the pIC50 [1] was 6.00 to 6.70 and the IC50 [2] was 200 to 1000 nM.

With `CCN1C(=O)[C@@H](NC(=O)c2cccc(C(F)(F)F)c2)[C@@H](c2ccc(F)cc2)c2c(NC(=O)C(F)Cl)nn(-c3ccccc3)c21` (mixture of isomers) [Compound I-120] the pIC50 [1] was 6.00 to 6.70 and the IC50 [2] was 200 to 1000 nM.

In the case of `CCN1C(=O)[C@@H](NC(=O)c2cccc(C(F)(F)F)c2)[C@@H](c2ccc(F)cc2)c2c(CNC(=O)C34CC3C4)nn(-c3ccccc3)c21` (stereo partly drawn) [Compound I-114, N-[[(4S, 5S)-7-ethyl-4-(4-fluorophenyl)-6-oxo-1-phenyl-5-[[3-(trifluoromethyl)benzoyl]amino]-4,5-dihydropyrazolo[3,4-b]pyridine-3-yl]methyl]bicyclo[1.1.0]butane-1-carboxamide], the pIC50 [1] was 6.00 to 6.70 and the IC50 [2] was 200 to 1000 nM.

With `CCN1C(=O)[C@@H](NC(=O)c2cccc(C(F)(F)F)c2)[C@@H](c2ccc(F)cc2)c2c(NC(=O)C#CCN(C)C)nn(-c3ccccc3)c21` (racemic) [Compound I-93, rac-N-((4R,5R)-3-(4-(dimethylamino)but-2-ynamido)-7-ethyl-4-(4-fluorophenyl)-6-oxo-1-phenyl-4,5,6,7-tetrahydro-1H-pyrazolo[3,4-b]pyridine-5-yl)-3-(trifluoromethyl)benzamide] the pIC50 [1] was ≥ 6.70 and the IC50 [2] was ≤ 200 nM.

`CCN1C(=O)[C@@H](NC(=O)c2cccc(C(F)(F)F)c2)[C@@H](c2ccc(F)cc2)c2c(C(=O)N[C@H](C)C#N)nn(-c3ccccc3)c21` (mixture of isomers) [Compound I-157] gave a pIC50 [1] of 6.00 to 6.70 and an IC50 [2] of 1000 to 3000 nM.

`C=C(Cc1nn(-c2ccccc2)c2c1[C@H](c1ccc(F)cc1)[C@H](NC(=O)c1cccc(C(F)(F)F)c1)C(=O)N2CC)C(=O)O` (racemic) [Compound I-21, rac-2-(((4R,5R)-7-ethyl-4-(4-fluorophenyl)-6-oxo-1-phenyl-5-(3-(trifluoromethyl)benzamido)-4,5,6,7-tetrahydro-1H-pyrazolo[3,4-b]pyridin-3-yl)methyl)acrylic acid] showed a pIC50 [1] of 5.52 to 6.00 and an IC50 [2] of 1000 to 3000 nM.

For `CCN1C(=O)[C@@H](NC(=O)c2cccc(C(F)(F)F)c2)[C@@H](c2ccc(F)cc2)c2c(CC/C=C/C(=O)O)nn(-c3ccccc3)c21` (racemic) [Compound I-134, rac-(E)-5-((4R,5R)-7-ethyl-4-(4-fluorophenyl)-6-oxo-1-phenyl-5-(3-(trifluoromethyl)benzamido)-4,5,6,7-tetrahydro-1H-pyrazolo[3,4-b]pyridin-3-yl)pent-2-enoic acid], the pIC50 [1] was 6.00 to 6.70 and the IC50 [2] was 200 to 1000 nM.

`CCN1C(=O)[C@@H](NC(=O)c2cccc(C(F)(F)F)c2)[C@@H](c2ccc(F)cc2)c2c(CC/C=C/C(N)=O)nn(-c3ccccc3)c21` [Compound I-124] gave a pIC50 [1] of 6.00 to 6.70 and an IC50 [2] of 200 to 1000 nM.
